Reference: US7973162B2, “Modulators of muscarinic receptors” (Vertex Pharmaceuticals Incorporated, priority 2007, dated 2011)

The compounds below were run against T1, M2 muscarinic receptor (Homo sapiens, UniProt P08172) (assay: Functional mobilization of intracellular calcium (FLIPR), M2-CHO cells). Conditions: 100% efficacy = maximum response obtained with the Carbachol control.
T1 construct: expressed in transfected cells; host or cells: CHO (M2-CHO)
T1 sequence (P08172 1-466): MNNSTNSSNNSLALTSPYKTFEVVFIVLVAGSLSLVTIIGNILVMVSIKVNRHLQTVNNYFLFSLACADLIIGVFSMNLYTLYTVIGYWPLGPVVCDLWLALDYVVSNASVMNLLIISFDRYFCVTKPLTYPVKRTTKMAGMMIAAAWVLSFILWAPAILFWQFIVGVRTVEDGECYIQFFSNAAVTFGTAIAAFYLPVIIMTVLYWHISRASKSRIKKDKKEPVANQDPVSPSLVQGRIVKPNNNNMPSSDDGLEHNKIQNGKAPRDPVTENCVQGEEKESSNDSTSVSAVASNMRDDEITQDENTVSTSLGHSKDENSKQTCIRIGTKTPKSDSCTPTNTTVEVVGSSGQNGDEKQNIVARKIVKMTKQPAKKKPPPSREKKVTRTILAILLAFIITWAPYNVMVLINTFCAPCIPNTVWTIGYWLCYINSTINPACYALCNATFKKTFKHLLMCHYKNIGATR
Assay type: cell-based
Protocol: (§1) Functional Mobilization of Intracellular Calcium to Determine Muscarinic Receptor Activity:
(§2) CHO cells expressing muscarinic receptors (M1 to M5) are grown as monolayers in tissue culture flasks at 37° C. in a humidified atmosphere containing 5% CO2 and passaged every 3-5 days. The growth media is Dulbecco's modified eagles medium (DMEM, Gibco Cat# 12430-054), containing 25 mM Hepes and supplemented with Fetal Bovine Serum (Hyclone, cat #SH30071.03), 0.1 mM of MEM non-essential amino acids (GIBCO, Cat #11140-050), 1 mM MEM Sodium Pyruvate (GIBCO Cat #11360-070) and 100 units/ml of Penicillin G and 100 μg/ml of Streptomycin (GIBCO Cat #15140-122). The recombinant muscarinic receptor cell lines are grown under antibiotic pressure with media containing 25 μg/ml zeocin and 500 μg/ml G418 (M1-CHO), 4 μg/ml puromycin, 50 μg/ml zeocin and 2.5 μg/ml blasticidin (M2 and M4-CHO) or 50 μg/ml zeocin and 4 μg/ml puromycin (M3 and M5-CHO).
(§3) Cells are harvested at 80-90% confluence using Versene (GIBCO Cat #15040-066), collected by centrifugation and seeded 18-24 hrs prior to running the calcium assay at a density of 5,000-10,000 cells/well in […], clear-bottomed 384-well plates (BD Biocoat, poly-D-lysine, Cat#356663). The day of the experiment, the cells are washed with a plate washer (Bioteck Instruments, ELX 405) using bath1 buffer (140-mM NaCl, 4.5-mM KCl, 2-mM CaCl2, 1-mM MgCl2, 10-mM Hepes-Na, 10-mM Glucose, pH 7.4, with NaOH) containing 1 mM Probenecid. Next, the calcium dye Fluo-3 (25 μl/well of Fluo-3 AM at 4 μM, Molecular Probes F-1241, in Bath 1 buffer containing 1 mM Probenecid) is added to the 25 μl of Bath 1 remaining in each well after the plate wash and the dye is loaded at 37° C. in the tissue culture incubator for 60-90 min. The fluorescent dye is removed using the plate washer with Bath 1 containing 1 mM Probenecid, leaving 25 μl/well of this solution after the wash. Alternatively, cells can be loaded with the calcium indicator from Molecular Devices (Calcium 3 Assay Reagents, Cat #R7181) adding 5 μl of a 5× solution dye in Bath 1 containing 1 mM Probenecid (10 ml per dye flask cat #R7182 to generate a solution 20×) to 20 μl of the same buffer. After loading for 60 min, the experiment can be run without having to remove the dye.
(§4) Compounds are prepared at a 2× fold concentration in a 96-well plate (round bottom, Costar Corning cat #3656), by reconstituting the pre-spotted compounds in bath 1 containing 1 mM probenecid. The final concentration DMSO is 0.5%, and the amount of DMSO is normalized across the assay plate. To determine an agonist action of the compounds on muscarinic receptors, the reconstituted compounds are added (25 μl compound/well) to the cell assay plate (containing 25 μl/well) using the multi-channel robotic system of the FLIPR 3 Instrument (Molecular Devices, Sunnyvale, Calif.). To determine a functional inhibitory action of the compounds on muscarinic receptors, the reconstituted compounds are added (25 μl compound/well) to the assay plate and pre-incubated for 15 min prior to adding 25 μl of Carbachol at 3× the EC80 for each muscarinic subtype. Alternatively, the compounds can be co-applied simultaneously with the agonist. In both assay modes, the fluorescence is recorded for 60 sec (excitation wavelength is […] and emission wavelength 540 nm) using the FLIPR 3 instrument.
(§5) The potency, efficacy and selectivity of the muscarinic compounds were evaluated by screening the compound activity across the whole family (M1 to M5 cells). Compounds were also screened for activity on other proteins such as other GPCRs and ion channels to determine selectivity on M4 receptors.
(§6) Examples of activities and efficacies of the muscarinic compounds of formulae (I, Ia, and Ib) on modulating M1 and M4 receptors are shown below in Table 3. […]

Compound	Emax [%]	M2 Efficacy
O=C1C[C@@H]2CC3(CCN(C4CCCCC4)CC3)c3ccccc3[C@@H]2N1 [Compound 7]	25 to 100	
O=C1CC2CC3(CCN(C4CCCCC4)CC3)c3ccccc3C2O1 (centres unmarked) [Compound 21]	25 to 100	
CN1C(=O)C[C@@H]2CC3(CCN(C4CCCCCC4)CC3)c3ccccc3[C@@H]21 [Compound 29]		++ (efficacy was calculated to be from 100% to 25%)
c1ccc2c(c1)C1OCCC1CC21CCN(C2CCCCCC2)CC1 (centres unmarked) [Compound 11]	< 25	

Same assay, conditions: CHO cells expressing M2, calcium mobilization

Compound	EC50 [nM]
O=C1C[C@@H]2CC3(CCN(C4CCCCC4)CC3)c3ccccc3[C@@H]2N1 [Compound 7]	< 2000
O=C1CC2CC3(CCN(C4CCCCC4)CC3)c3ccccc3C2O1 (centres unmarked) [Compound 21]	> 5000
CN1C(=O)C[C@@H]2CC3(CCN(C4CCCCCC4)CC3)c3ccccc3[C@@H]21 [Compound 29]	< 2000
c1ccc2c(c1)C1OCCC1CC21CCN(C2CCCCCC2)CC1 (centres unmarked) [Compound 11]	> 5000

What follows are compounds tested against T2, M3 muscarinic receptor (Homo sapiens, UniProt P20309) (assay: Functional mobilization of intracellular calcium (FLIPR), M3-CHO cells). Conditions: 100% efficacy = maximum response obtained with the Carbachol control.
T2 construct: expressed in transfected cells; host or cells: CHO (M3-CHO)
T2 sequence (P20309 whole entry): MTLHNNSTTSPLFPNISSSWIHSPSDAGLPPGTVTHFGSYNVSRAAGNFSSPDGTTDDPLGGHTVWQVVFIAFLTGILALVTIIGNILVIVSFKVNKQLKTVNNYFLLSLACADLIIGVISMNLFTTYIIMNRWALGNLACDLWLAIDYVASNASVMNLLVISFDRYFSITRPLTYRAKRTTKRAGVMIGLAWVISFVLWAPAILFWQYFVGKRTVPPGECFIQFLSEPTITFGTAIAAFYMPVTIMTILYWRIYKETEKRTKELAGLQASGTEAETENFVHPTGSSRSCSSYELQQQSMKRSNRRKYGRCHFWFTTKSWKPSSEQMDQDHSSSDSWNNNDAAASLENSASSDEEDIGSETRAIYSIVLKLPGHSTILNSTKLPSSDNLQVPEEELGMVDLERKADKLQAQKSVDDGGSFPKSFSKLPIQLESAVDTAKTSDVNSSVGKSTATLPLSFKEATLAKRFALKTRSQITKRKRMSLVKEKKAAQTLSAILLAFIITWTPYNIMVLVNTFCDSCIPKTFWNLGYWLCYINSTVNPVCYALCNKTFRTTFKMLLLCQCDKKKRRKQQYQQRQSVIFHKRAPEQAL
Assay type: cell-based
Protocol: as §1, §2, §3, §4, §5, §6

Compound	Emax [%]	M3 Efficacy
O=C1C[C@@H]2CC3(CCN(C4CCCCC4)CC3)c3ccccc3[C@@H]2N1 [Compound 7]	< 25	
O=C1CC2CC3(CCN(C4CCCCC4)CC3)c3ccccc3C2O1 (centres unmarked) [Compound 21]	< 25	
CN1C(=O)C[C@@H]2CC3(CCN(C4CCCCCC4)CC3)c3ccccc3[C@@H]21 [Compound 29]		+ (efficacy was calculated to be less than 25%)
c1ccc2c(c1)C1OCCC1CC21CCN(C2CCCCCC2)CC1 (centres unmarked) [Compound 11]	< 25	

Same assay, conditions: CHO cells expressing M3, calcium mobilization

Compound	EC50 [nM]
O=C1C[C@@H]2CC3(CCN(C4CCCCC4)CC3)c3ccccc3[C@@H]2N1 [Compound 7]	> 5000
O=C1CC2CC3(CCN(C4CCCCC4)CC3)c3ccccc3C2O1 (centres unmarked) [Compound 21]	> 5000
CN1C(=O)C[C@@H]2CC3(CCN(C4CCCCCC4)CC3)c3ccccc3[C@@H]21 [Compound 29]	> 5000
c1ccc2c(c1)C1OCCC1CC21CCN(C2CCCCCC2)CC1 (centres unmarked) [Compound 11]	> 5000

What follows are compounds tested against T3, M4 muscarinic receptor (Homo sapiens, UniProt P08173) (assay: Functional mobilization of intracellular calcium (FLIPR), M4-CHO cells). Conditions: 100% efficacy = maximum response obtained with the Carbachol control.
T3 construct: expressed in transfected cells; host or cells: CHO (M4-CHO)
T3 sequence (P08173 1-479): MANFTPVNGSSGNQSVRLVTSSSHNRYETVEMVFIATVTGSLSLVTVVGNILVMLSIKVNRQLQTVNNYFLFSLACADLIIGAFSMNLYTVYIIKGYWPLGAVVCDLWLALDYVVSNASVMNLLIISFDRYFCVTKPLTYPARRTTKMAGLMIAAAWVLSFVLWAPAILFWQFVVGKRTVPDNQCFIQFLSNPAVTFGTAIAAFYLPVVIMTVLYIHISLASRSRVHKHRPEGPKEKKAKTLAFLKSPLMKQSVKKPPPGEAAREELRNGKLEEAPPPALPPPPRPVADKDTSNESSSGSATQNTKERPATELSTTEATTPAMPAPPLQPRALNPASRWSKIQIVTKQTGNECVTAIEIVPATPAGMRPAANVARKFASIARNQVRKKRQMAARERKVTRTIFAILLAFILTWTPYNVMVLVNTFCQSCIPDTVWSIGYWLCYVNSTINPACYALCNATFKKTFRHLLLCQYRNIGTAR
Assay type: cell-based
Protocol: as §1, §2, §3, §4, §5, §6

Compound	Emax [%]	M4 Efficacy
O=C1C[C@@H]2CC3(CCN(C4CCCCC4)CC3)c3ccccc3[C@@H]2N1 [Compound 7]	25 to 100	
O=C1CC2CC3(CCN(C4CCCCC4)CC3)c3ccccc3C2O1 (centres unmarked) [Compound 21]	25 to 100	
CN1C(=O)C[C@@H]2CC3(CCN(C4CCCCCC4)CC3)c3ccccc3[C@@H]21 [Compound 29]		++ (efficacy was calculated to be from 100% to 25%)
c1ccc2c(c1)C1OCCC1CC21CCN(C2CCCCCC2)CC1 (centres unmarked) [Compound 11]	25 to 100	

Same assay, conditions: CHO cells expressing M4, calcium mobilization

Compound	EC50 [nM]
O=C1C[C@@H]2CC3(CCN(C4CCCCC4)CC3)c3ccccc3[C@@H]2N1 [Compound 7]	< 2000
O=C1CC2CC3(CCN(C4CCCCC4)CC3)c3ccccc3C2O1 (centres unmarked) [Compound 21]	< 2000
CN1C(=O)C[C@@H]2CC3(CCN(C4CCCCCC4)CC3)c3ccccc3[C@@H]21 [Compound 29]	< 2000
c1ccc2c(c1)C1OCCC1CC21CCN(C2CCCCCC2)CC1 (centres unmarked) [Compound 11]	< 2000

The compounds below were run against T4, M1 muscarinic receptor (Homo sapiens, UniProt P11229) (assay: Functional mobilization of intracellular calcium (FLIPR), M1-CHO cells). Conditions: 100% efficacy = maximum response obtained with the Carbachol control.
T4 construct: expressed in transfected cells; host or cells: CHO (M1-CHO)
T4 sequence (P11229 1-460): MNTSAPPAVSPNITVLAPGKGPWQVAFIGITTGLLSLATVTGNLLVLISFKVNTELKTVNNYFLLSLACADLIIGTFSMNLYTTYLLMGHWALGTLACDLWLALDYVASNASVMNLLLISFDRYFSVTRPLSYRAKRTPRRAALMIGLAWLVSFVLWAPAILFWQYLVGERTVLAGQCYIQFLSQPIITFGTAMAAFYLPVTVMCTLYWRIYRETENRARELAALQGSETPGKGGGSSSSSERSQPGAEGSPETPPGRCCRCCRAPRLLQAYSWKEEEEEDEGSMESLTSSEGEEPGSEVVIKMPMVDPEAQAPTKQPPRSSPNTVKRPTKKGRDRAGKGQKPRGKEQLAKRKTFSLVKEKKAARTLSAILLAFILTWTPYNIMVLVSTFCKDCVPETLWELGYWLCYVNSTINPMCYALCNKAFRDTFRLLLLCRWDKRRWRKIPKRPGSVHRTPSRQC
Assay type: cell-based
Protocol: as §1, §2, §3, §4, §5, §6

Compound	Emax [%]	M1 Efficacy
O=C1C[C@@H]2CC3(CCN(C4CCCCC4)CC3)c3ccccc3[C@@H]2N1 [Compound 7]	25 to 100	
O=C1CC2CC3(CCN(C4CCCCC4)CC3)c3ccccc3C2O1 (centres unmarked) [Compound 21]	25 to 100	
CN1C(=O)C[C@@H]2CC3(CCN(C4CCCCCC4)CC3)c3ccccc3[C@@H]21 [Compound 29]		++ (efficacy was calculated to be from 100% to 25%)
c1ccc2c(c1)C1OCCC1CC21CCN(C2CCCCCC2)CC1 (centres unmarked) [Compound 11]	25 to 100	

Same assay, conditions: CHO cells expressing M1, calcium mobilization

Compound	EC50 [nM]
O=C1C[C@@H]2CC3(CCN(C4CCCCC4)CC3)c3ccccc3[C@@H]2N1 [Compound 7]	< 2000
O=C1CC2CC3(CCN(C4CCCCC4)CC3)c3ccccc3C2O1 (centres unmarked) [Compound 21]	< 2000
CN1C(=O)C[C@@H]2CC3(CCN(C4CCCCCC4)CC3)c3ccccc3[C@@H]21 [Compound 29]	< 2000
c1ccc2c(c1)C1OCCC1CC21CCN(C2CCCCCC2)CC1 (centres unmarked) [Compound 11]	2000 to 5000
